Measurements reported in publication PMC5754397, “Population pharmacokinetics of nintedanib, an inhibitor of tyrosine kinases, in patients with non-small cell lung cancer or idiopathic pulmonary fibrosis” (Cancer Chemotherapy and Pharmacology, 2017).
“And” between values parts separate entries of the source, which are not always exact repeats. Equal entries are not always repeated. Marks after values point to notes of the source that are not given here.

Columns and labels:
target receptors = system: target receptors; set-up: method as in PMID 21204634; conditions: cited from earlier work
mouse xenograft models = system: mouse xenograft models; set-up: method as in ref 7 = [7]; 7. European Medicines Agency (2014) Committee for Medicinal Products for Human Use (CHMP) Assessment Report for Vargatef (nintedanib), 25 September 2014. http://www.ema.europa.eu/docs/en_GB/document_l; conditions: cited from earlier work
[1] = set-up: method as in PMID 21204634; conditions: dedicated ADME study; cited from earlier work
[2] = Population pharmacokinetic analysis in healthy subjects after intravenous administration of nintedanib (one-compartment model); assay type: in vivo, human; conditions: healthy subjects, intravenous nintedanib; estimate (RSE%)
Excerpt: The pharmacokinetic profile of BIBF 1202 was best described by a one-compartment model with first-order elimination (see Online Resource Fig. S1 for model structure). To account for formation of BIBF 1202 in the intestine or via hepatic first-pass effect, a first-order absorption with lag time (ALAG2) was implemented as per nintedanib absorption. The relative bioavailability (F2) and the absorption-rate constant (k a2) were implemented as functions of nintedanib F1 and k a, respectively (substantial drop in OFV as compared to a model, where F2 and k a2 were estimated independently of F1 and k a). This parametrization accounted for correlations between nintedanib and BIBF 1202 parameters and replaced the full variance–covariance matrix which was not applied due to the sequential modeling approach used. The rate of formation of BIBF 1202 (k met) during nintedanib systemic elimination was accounted by defining it as a function of nintedanib clearance: k met = CL/V2*ffM, where CL and V2 denote the clearance and central volume of distribution of nintedanib respectively, and ffM denotes the proportion of the nintedanib elimination resulting in BIBF 1202 formation. Due to the lack of data for BIBF 1202 given as an intravenous (IV) infusion, several parameter estimates were not identifiable (ffM, BIBF 1202 apparent volume of distribution [V3/F]) and were, therefore, fixed. The value for ffM was derived from pharmacokinetic data after IV administration of nintedanib (Online Resource Table S4) and the ratio of V3/F–V2/F was fixed based on information observed in rats. […] In addition to the (inter-individual) variability of F2 induced by the variability in F1 (F2 being proportional to F1), additional IIV could be implemented for F2.
Table S4 Structural parameters for nintedanib and BIBF 1202 from a population pharmacokinetic analysis based on healthy subjects (n=23^a, 372 observations) after intravenous administration of nintedanib
One subject (3 mg dose) was excluded from analysis due to increasing plasma concentrations of nintedanib after end of infusion

[3] = Population pharmacokinetic model of metabolite BIBF 1202 plasma concentrations in patients with NSCLC or IPF treated with nintedanib; assay type: in vivo, human
Excerpt: This population pharmacokinetic analysis pooled data from nintedanib treatment in four clinical studies; 1 Phase II (n = 73) and two Phase III trials in patients with NSCLC (LUME-Lung 1 (n = 652) and LUME-Lung 2 (n = 347)) and one Phase II trial (TOMORROW, n = 343) in patients with IPF [11] (data from IPF Phase III trials were not available at time of analysis). An overview of these studies is provided in Online Resource Table S1. In the NSCLC Phase II trial, patients with locally advanced or metastatic relapsed NSCLC in whom first- or second line platinum-based chemotherapy had failed and were randomized to nintedanib 150 or 250 mg twice-daily. Treatment continued until disease progression or intolerable toxicity. In the NSCLC Phase III trials, nintedanib 200 mg twice-daily or placebo was given in repeated 21 day treatment cycles in combination with single infusions of docetaxel 75 mg/m^2 (LUME-Lung 1 trial) or pemetrexed 500 mg/m^2 (LUME-Lung 2 trial), administered on day 1 of each cycle. Treatment cycles were continued until disease progression or intolerable toxicity. In the Phase II trial in patients with IPF [11], patients were randomized to a 52-week treatment period with one of the four doses of nintedanib (50 mg once or twice-daily, 100, 150 mg twice-daily) or placebo. In all four trials, dose reductions and interruptions were allowed to manage adverse events. All studies were conducted in accordance with the Declaration of Helsinki and with approval of the local ethics committees. Written informed consent was obtained from all patients before study entry.
Blood sampling schema for measurement of nintedanib plasma concentrations varied. For all trials, at least two pre-dose and two post-dose blood samples were scheduled during treatment (see Online Resource Table S1). In addition, more extensive sampling was performed in the two Phase II trials. Nintedanib and BIBF 1202 plasma concentrations were analyzed by validated liquid chromatography–mass spectrometry (HPLC–MS/MS) methods. The calibration curves covered the range 0.5–500 ng/mL for nintedanib and 1–1000 ng/mL for BIBF 1202 in undiluted plasma samples and were linear over this range.
The population pharmacokinetic analysis was performed using non-linear mixed-effects modeling techniques (NONMEM, version VI 2.0, ICON Development Solutions, Ellicott City, Maryland, USA). The first-order conditional estimation algorithm with interaction was used. Data processing, diagnostic plots, and calculation of descriptive statistics were performed using R version 2.12.1 (http://www.rproject.org) and SAS version 9.2 (SAS Institute Inc, Cary, NC, USA). Bootstrap analysis was performed using Perl-speaks-NONMEM, version 3.5.3 [24, 25].
Using fixed pharmacokinetic parameter estimates from the nintedanib base model (typical values plus empirical Bayes estimates of individual η), the base model of BIBF 1202 was developed. Plasma concentrations of nintedanib and BIBF 1202 were reported in nM to account for differences in their molecular weight.
The covariate analysis for BIBF 1202 was based on the fixed pharmacokinetic parameters of the final nintedanib model and base model of BIBF 1202 and followed the same principles described for nintedanib (see Online Resource Table S3).
Model evaluation for BIBF 1202 was analogous to nintedanib, with the exception of the non-parametric bootstrap analysis.
Finally, after the sequential pharmacokinetic analysis for nintedanib and BIBF 1202, the parameters for the final models of nintedanib and BIBF 1202 were estimated simultaneously.
To illustrate individual covariate effects, the change in the median steady-state nintedanib and BIBF 1202 plasma concentration–time profiles were compared to the exposure in a typical patient. The typical patient was defined by baseline medians (continuous covariate) and modes (categorical covariate) of the respective covariates in the total analyzed population. […]

PDGFRα = system: PDGFRα; set-up: method as in Boehringer Ingelheim unpublished data, 14; conditions: PDGFRα stimulation of primary lung fibroblasts; ref Boehringer Ingelheim unpublished data, 14; cited from earlier work
PDGFRβ = system: PDGFRβ; set-up: method as in Boehringer Ingelheim unpublished data, 14; conditions: PDGFRβ stimulation of primary lung fibroblasts; ref Boehringer Ingelheim unpublished data, 14; cited from earlier work
[4] = system: VEGF or bFGF stimulation of human umbilical vascular endothelial cells; set-up: method as in Boehringer Ingelheim unpublished data, 14; conditions: VEGF or bFGF stimulation of HUVEC; ref Boehringer Ingelheim unpublished data, 14; cited from earlier work
[5] = final BIBF 1202 model (sequential fit), estimate (RSE%)
[6] = final BIBF 1202 model (sequential fit), reference Caucasian/Black origin = 1.00, estimate (RSE%)

CN1CCN(CC(=O)N(C)c2ccc(N/C(=C3\C(=O)Nc4cc(C(=O)O[C@@H]5O[C@H](C(=O)O)[C@@H](O)[C@H](O)[C@H]5O)ccc43)c3ccccc3)cc2)CC1 [BIBF 1202 glucuronide]
in vitro activity at the target receptors (target receptors): did not show in vitro activity

CN1CCN(CC(=O)N(C)c2ccc(N/C(=C3\C(=O)Nc4cc(C(=O)O)ccc43)c3ccccc3)cc2)CC1 [BIBF 1202]
efficacy in mouse xenograft models (mouse xenograft models): not effective | metabolic ratio for AUC (BIBF 1202 to nintedanib) [1]: ~1 | metabolic ratio for Cmax (BIBF 1202 to nintedanib) [1]: ~1 | CL2, total body clearance for BIBF 1202 [2]: 0.513 (17.0) L/h | changes in BIBF 1202 exposure by ECOG performance status and LDH ([3]; covariates influencing BIBF 1202 but not nintedanib exposure): < 30% | IIV in F2 ([3]; final BIBF 1202 model (sequential fit), estimate (RSE% on the variance scale)): 56.7 (8.60^f) CV% and 56.7 (8.60^e) CV% | CL2/F (θCL2), apparent total body clearance for BIBF 1202 [3, 5]: 7.05 (6.37) L/h | F2/F1 (θF2F1), ratio of relative bioavailabilities BIBF 1202 to nintedanib [3, 5]: 0.0110 (11.3) | covariate effect on F2, θLDH_Breakpoint (breakpoint for LDH) [3, 5]: 688 (22.0) U/L | covariate effect on F2, θWT [3, 5]: -0.848 (12.2) | ka2/ka (θka2ka), ratio of absorption rate constants BIBF 1202 to nintedanib [3, 5]: 1.47 (8.16) | covariate effect on F2, θLDH (coefficient for LDH [U/L]) ([3]; final BIBF 1202 model (sequential fit), hockey-stick function, estimate (RSE%)): 0.000656 (22.1) | covariate effect on F2, θEthnicity: Asian origin (except for Indian) [3, 6]: 1.20 (4.83) | covariate effect on F2, θEthnicity: Indian origin [3, 6]: 1.90 (13.5) | covariate effect on F2, θECOG: ECOG≥1 ([3]; final BIBF 1202 model (sequential fit), reference ECOG=0 = 1.00, estimate (RSE%)): 1.16 (4.16) | covariate effect on ka2, θTrial: NSCLC Phase II and IPF Phase II ([3]; final BIBF 1202 model (sequential fit), reference LUME-Lung 1 and LUME-Lung 2 = 1.00, estimate (RSE%)): 0.756 (7.72) | covariate effect on ka2, θNSCLC_histology: non-adenocarcinoma ([3]; final BIBF 1202 model (sequential fit), reference adenocarcinoma = 1.00, estimate (RSE%)): 1.36 (8.90) | share of BIBF 1202 in plasma formed systemically ([3]; final model, systemic formation rate fixed to the value from the IV study): about 8% | upper limit of the predicted 2 h post-dose concentration for Indian patients ([3]; pcQPC of the final BIBF 1202 model, 95% prediction interval of simulated medians, steady state): 88 ng/mL | F2/F1 (θF2F1) ([3]; simultaneous estimation): 0.0153 (–) | IIV in F2 ([3]; simultaneous estimation): 47.9 (–) CV% | covariate effect on F2, θECOG: ECOG≥1 ([3]; simultaneous estimation): 1.13 (–) | covariate effect on F2, θEthnicity: Asian origin (except for Indian) ([3]; simultaneous estimation): 1.19 (–) | covariate effect on F2, θEthnicity: Indian origin ([3]; simultaneous estimation): 1.81 (–) | covariate effect on F2, θLDH (coefficient for LDH [U/L]) ([3]; simultaneous estimation): 0.00064 (–) | covariate effect on F2, θLDH_Breakpoint (breakpoint for LDH) ([3]; simultaneous estimation): 683 (–) U/L | covariate effect on F2, θWT ([3]; simultaneous estimation): -0.791 (–) | covariate effect on ka2, θNSCLC_histology: non-adenocarcinoma ([3]; simultaneous estimation): 1.24 (–) | covariate effect on ka2, θTrial: NSCLC Phase II and IPF Phase II ([3]; simultaneous estimation): 0.864 (–) | ka2/ka (θka2ka) ([3]; simultaneous estimation): 1.14 (–) | CL2/F (θCL2) ([3]; simultaneous estimation of nintedanib and BIBF 1202 models, RSE not available): 9.68 (–) L/h | lower potency compared to nintedanib (PDGFRα): 265 fold | lower potency compared to nintedanib (PDGFRβ): 607 fold | lower potency compared to nintedanib [4]: 9–10 fold
